24 molecules from patent publication US20240254115A1 (ACONDICIONAMIENTO TARRASENSE, priority 2021, published 2024) can be followed below.

As a reminder, the Ki is a measure of affinity in units of concentration, obtained from inhibition or displacement.

The target of one experiment is T1, human σ2/TMEM97 receptor (Homo sapiens, UniProt Q5BJF2).
T1 construct: expressed in transfected cells; host or cells: HEK-293
In words: Binding assay to human σ2/TMEM97 receptor. The settings on record: transfected HEK-293 membranes, 10 nM [3H]-DTG, 25° C. 120 minutes; + may also stand for 1-50% inhibition at 1 or 10 μM; read-out: Binding σ-2 Ki. The procedure: Binding Assay to Human σ2/TMEM97 Receptor
Transfected HEK-293 membranes (15 μg) were incubated with 10 nM [^3H]-1,3-Di-o-tolylguanidine (DTG) in assay buffer containing Tris-HCl 50 mM at pH 8.0. NSB (non-specific binding) was measured by adding 10 μM haloperidol. The binding of the test compound was measured at either one concentration (% inhibition at 1 or 10 μM) or five different concentrations to determine affinity values (Ki). Plates were incubated at 25° C. for 120 minutes. After the incubation period, the reaction mix was transferred to MultiScreen HTS, FC plates (Millipore), filtered and washed 3 times with ice-cold 10 mM Tris-HCL (pH 8.0). Filters were dried and counted at approximately 40% efficiency in a MicroBeta scintillation counter (Perkin-Elmer) using EcoScint liquid scintillation cocktail.

Another experiment has as its target T2, human σ1 receptor (Homo sapiens, UniProt Q99720).
T2 construct: expressed in transfected cells; host or cells: HEK-293
Kind of experiment: Human σ1 receptor radioligand assay. The settings on record: transfected HEK-293 membranes, 5 nM [3H](+)-pentazocine, 37° C. 120 minutes; + may also stand for 1-50% inhibition at 1 or 10 μM; read-out: Binding σ-1 Ki. How it is done:
Human σ1 Receptor Radioligand Assay
Transfected HEK-293 membranes (7 μg) were incubated with 5 nM of [^3H](+)-pentazocine in assay buffer containing Tris-HCl 50 mM at pH 8. NBS (non-specific binding) was measured by adding 10 μM haloperidol. The binding of the test compound was measured at either one concentration (% inhibition at 1 or 10 μM) or five different concentrations to determine affinity values (Ki). Plates were incubated at 37° C. for 120 minutes. After the incubation period, the reaction mix was then transferred to MultiScreen HTS, FC plates (Millipore), filtered and plates were washed 3 times with ice-cold 10 mM Tris-HCL (pH7.4). Filters were dried and counted at approximately 40% efficiency in a MicroBeta scintillation counter (Perkin-Elmer) using EcoScint liquid scintillation cocktail.

Some results are limits rather than exact numbers.

T2 sequence (Q99720 whole entry): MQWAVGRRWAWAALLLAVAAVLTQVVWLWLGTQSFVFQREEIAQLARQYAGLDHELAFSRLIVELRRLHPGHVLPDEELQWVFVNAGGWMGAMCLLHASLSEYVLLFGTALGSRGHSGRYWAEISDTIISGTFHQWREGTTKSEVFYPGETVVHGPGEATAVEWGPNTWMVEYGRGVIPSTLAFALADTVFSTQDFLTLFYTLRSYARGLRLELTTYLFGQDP
T1 sequence (Q5BJF2 whole entry): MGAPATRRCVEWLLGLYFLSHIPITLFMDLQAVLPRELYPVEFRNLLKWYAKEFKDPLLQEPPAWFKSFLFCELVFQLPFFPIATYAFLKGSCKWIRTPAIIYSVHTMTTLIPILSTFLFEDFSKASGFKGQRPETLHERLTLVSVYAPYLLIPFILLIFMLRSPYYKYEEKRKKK

`CN(Cc1ccccc1)[C@H]1CC[C@H](NS(=O)(=O)c2ccc(N3CCC4(CCOC4)CC3)nc2)CC1` [Example 31]: the Ki at human σ2/TMEM97 receptor and at human σ1 receptor was below 100 nM in each case.

Turning to `CN(Cc1ccccc1)[C@H]1CC[C@H](NS(=O)(=O)c2ccc(N3CCCOCC3)nc2)CC1` [Example 32, N-((1r,4r)-4-(Benzyl(methyl)amino)cyclohexyl)-6-(1,4-oxazepan-4-yl) pyridine-3-sulfonamide], the Ki at human σ2/TMEM97 receptor is below 100 nM; on human σ1 receptor, 100 to 500 nM.

`COc1ccc(CNC[C@H]2CCCN(S(=O)(=O)c3ccc(N4CCOCC4)nc3)C2)cn1` [Example 33, (R)-1-(6-Methoxypyridin-3-yl)-N-((1-((6-morpholinopyridin-3-yl)sulfonyl)piperidin-3-yl)methyl) methanamine]: the results for the inhibition constant Ki on human σ2/TMEM97 receptor and on human σ1 receptor were below 100 nM and above 1000 nM, respectively.

Take `COc1ccc(CNC[C@@H]2CCCN(S(=O)(=O)c3ccc(N4CCOCC4)nc3)C2)cn1` [Example 34, (S)-1-(6-Methoxypyridin-3-yl)-N-((1-((6-morpholinopyridin-3-yl)sulfonyl)piperidin-3-yl)methyl) methanamine]: the Ki on human σ2/TMEM97 receptor was below 100 nM; on human σ1 receptor, 500 to 1000 nM.

Consider `O=S(=O)(N[C@H]1CCN(Cc2cccc(F)c2)C1)c1ccc(N2CCOCC2)nc1` [Example 35, (S)—N-(1-(3-Fluorobenzyl)pyrrolidin-3-yl)-6-morpholinopyridine-3-sulfonamide], for which the Ki at human σ2/TMEM97 receptor is above 1000 nM; at human σ1 receptor it was below 100 nM.

Turning to `O=S(=O)(N[C@@H]1CCN(Cc2ccc(F)cc2)C1)c1ccc(N2CCOCC2)nc1` [Example 36, (R)-N-(1-(4-Fluorobenzyl)pyrrolidin-3-yl)-6-morpholinopyridine-3-sulfonamide], the Ki on human σ2/TMEM97 receptor is above 1000 nM; at human σ1 receptor, below 100 nM.

For `N#Cc1ccc(CN2CC[C@@H](NS(=O)(=O)c3ccc(N4CCOCC4)nc3)C2)cc1` [Example 37, (R)-N-(1-(4-Cyanobenzyl)pyrrolidin-3-yl)-6-morpholinopyridine-3-sulfonamide], the results for the Ki on human σ2/TMEM97 receptor and at human σ1 receptor were above 1000 nM and below 100 nM, respectively.

As to `O=S(=O)(N[C@@H]1CCN(Cc2cccc(F)c2)C1)c1ccc(N2CCOCC2)nc1` [Example 38, (R)-N-(1-(3-Fluorobenzyl)pyrrolidin-3-yl)-6-morpholinopyridine-3-sulfonamide], the values for the Ki at human σ2/TMEM97 receptor and on human σ1 receptor were above 1000 nM and below 100 nM, respectively.

`N#Cc1ccc(CN2CC[C@H](NS(=O)(=O)c3ccc(N4CCOCC4)nc3)C2)cc1` [Example 39, (S)-N-(1-(4-Cyanobenzyl)pyrrolidin-3-yl)-6-morpholinopyridine-3-sulfonamide]: the Ki on human σ2/TMEM97 receptor is above 1000 nM; on human σ1 receptor, below 100 nM.

Consider `N#Cc1cccc(CN2CC[C@@H](NS(=O)(=O)c3ccc(N4CCOCC4)nc3)C2)c1` [Example 40, (R)-N-(1-(3-Cyanobenzyl)pyrrolidin-3-yl)-6-morpholinopyridine-3-sulfonamide], for which the Ki on human σ2/TMEM97 receptor was above 1000 nM; on human σ1 receptor, 100 to 500 nM.

Regarding `O=S(=O)(N[C@H]1CCN(Cc2ccc(F)cc2)C1)c1ccc(N2CCOCC2)nc1` [Example 41, (S)-N-(1-(4-Fluorobenzyl)pyrrolidin-3-yl)-6-morpholinopyridine-3-sulfonamide], the Ki at human σ2/TMEM97 receptor was above 1000 nM; at human σ1 receptor, below 100 nM.

For the molecule `N#Cc1cccc(CN2CC[C@H](NS(=O)(=O)c3ccc(N4CCOCC4)nc3)C2)c1` [Example 42, (S)-N-(1-(3-Cyanobenzyl)pyrrolidin-3-yl)-6-morpholinopyridine-3-sulfonamide], the Ki on human σ2/TMEM97 receptor is above 1000 nM; at human σ1 receptor it was 500 to 1000 nM.

In the case of `O=S(=O)(NC1CN(Cc2ccccc2)C1)c1ccc(N2CCOCC2)nc1` [Example 43, N-(1-Benzylazetidin-3-yl)-6-morpholinopyridine-3-sulfonamide], the Ki on human σ2/TMEM97 receptor was above 1000 nM; at human σ1 receptor it was below 100 nM.

Regarding `O=S(=O)(N[C@@H]1CCN(Cc2ccc(C(F)(F)F)nc2)C1)c1ccc(N2CCOCC2)nc1` [Example 44, (R)-6-Morpholino-N-(1-((6-(trifluoromethyl)pyridin-3-yl)methyl)pyrrolidin-3-yl)pyridine-3-sulfonamide], the Ki was above 1000 nM on human σ2/TMEM97 receptor and 500 to 1000 nM at human σ1 receptor.

Turning to `O=S(=O)(c1ccc(N2CCOCC2)nc1)N1CCC2(CCN(Cc3ccccc3)CC2)C1` [Example 45, 4-(5-((8-Benzyl-2,8-diazaspiro[4.5]decan-2-yl)sulfonyl)pyridin-2-yl)morpholine], the values for the Ki at human σ2/TMEM97 receptor and on human σ1 receptor were 100 to 500 nM and 500 to 1000 nM, respectively.

For the molecule `O=S(=O)(NC1CC2(CCN(Cc3ccccc3)CC2)C1)c1ccc(N2CCOCC2)nc1` [Example 46, N-(7-Benzyl-7-azaspiro[3.5]nonan-2-yl)-6-morpholinopyridine-3-sulfonamide], the Ki at human σ2/TMEM97 receptor is 100 to 500 nM; at human σ1 receptor, above 1000 nM.

With `O=S(=O)(c1ccc(N2CCOCC2)nc1)N1CCC2(CC1)CN(Cc1ccccc1)C2` [Example 47, 4-(5-((2-Benzyl-2,7-diazaspiro[3.5]nonan-7-yl)sulfonyl)pyridin-2-yl)morpholine], the Ki is 100 to 500 nM on human σ2/TMEM97 receptor and above 1000 nM at human σ1 receptor.

For the molecule `N#Cc1cccc(CN2CCC3(CC2)CCN(S(=O)(=O)c2ccc(N4CCOCC4)nc2)CC3)c1` [Example 48, 3-((9-((6-Morpholinopyridin-3-yl)sulfonyl)-3,9-diazaspiro[5.5]undecan-3-yl)methyl)benzonitrile], the Ki on human σ2/TMEM97 receptor was below 100 nM; on human σ1 receptor, above 1000 nM.

For `CC(C)N([C@@H]1CCN(Cc2ccc(C#N)cc2)C1)S(=O)(=O)c1ccc(N2CCOCC2)nc1` [Example 49, (R)—N-(1-(4-Cyanobenzyl)pyrrolidin-3-yl)-N-isopropyl-6-morpholinopyridine-3-sulfonamide], the Ki at human σ2/TMEM97 receptor and at human σ1 receptor was above 1000 nM each time.

For the molecule `CC(C)N([C@H]1CCN(Cc2ccc(C#N)cc2)C1)S(=O)(=O)c1ccc(N2CCOCC2)nc1` [Example 50, (S)-N-(1-(4-Cyanobenzyl)pyrrolidin-3-yl)-N-isopropyl-6-morpholinopyridine-3-sulfonamide], the values for the Ki on human σ2/TMEM97 receptor and on human σ1 receptor were above 1000 nM and 500 to 1000 nM, respectively.

Regarding `O=S(=O)(N[C@H]1CC[C@H](NCc2ccccc2)CC1)c1ccc(N2CCOCC2)nc1` [Example 51, N-((1 r,4r)-4-(Benzylamino)cyclohexyl)-6-morpholinopyridine-3-sulfonamide], the Ki at human σ2/TMEM97 receptor was 100 to 500 nM; at human σ1 receptor, above 1000 nM.

Take `N#Cc1cc(CN[C@H]2CC[C@H](NS(=O)(=O)c3ccc(N4CCOCC4)nc3)CC2)ccc1F` [Example 52, N-((1r,4r)-4-((3-Cyano-4-fluorobenzyl)amino)cyclohexyl)-6-morpholinopyridine-3-sulfonamide]: the Ki on human σ2/TMEM97 receptor was 100 to 500 nM; on human σ1 receptor, above 1000 nM.

Regarding `O=S(=O)(N[C@H]1CC[C@H](NCc2ccccc2F)CC1)c1ccc(N2CCOCC2)nc1` [Example 53, N-((1r,4r)-4-((2-Fluorobenzyl)amino)cyclohexyl)-6-morpholinopyridine-3-sulfonamide], the Ki at human σ2/TMEM97 receptor is 100 to 500 nM; on human σ1 receptor, above 1000 nM.

With `O=S(=O)(N[C@H]1CC[C@H](NCc2cccc(F)c2)CC1)c1ccc(N2CCOCC2)nc1` [Example 54, N-((1r,4r)-4-((3-Fluorobenzyl)amino)cyclohexyl)-6-morpholinopyridine-3-sulfonamide], the Ki at human σ2/TMEM97 receptor and at human σ1 receptor was 100 to 500 nM each time.
